Our source for the IC50 values is patent publication US12448395B2 (BRISTOL-MYERS SQUIBB COMPANY, priority 2019, dated 2025).

pIC50: −log10 of the molar value.

One experiment has as its target T1, human TLR9 (Homo sapiens, UniProt Q9NR96).
T1 sequence (Q9NR96 26-1032): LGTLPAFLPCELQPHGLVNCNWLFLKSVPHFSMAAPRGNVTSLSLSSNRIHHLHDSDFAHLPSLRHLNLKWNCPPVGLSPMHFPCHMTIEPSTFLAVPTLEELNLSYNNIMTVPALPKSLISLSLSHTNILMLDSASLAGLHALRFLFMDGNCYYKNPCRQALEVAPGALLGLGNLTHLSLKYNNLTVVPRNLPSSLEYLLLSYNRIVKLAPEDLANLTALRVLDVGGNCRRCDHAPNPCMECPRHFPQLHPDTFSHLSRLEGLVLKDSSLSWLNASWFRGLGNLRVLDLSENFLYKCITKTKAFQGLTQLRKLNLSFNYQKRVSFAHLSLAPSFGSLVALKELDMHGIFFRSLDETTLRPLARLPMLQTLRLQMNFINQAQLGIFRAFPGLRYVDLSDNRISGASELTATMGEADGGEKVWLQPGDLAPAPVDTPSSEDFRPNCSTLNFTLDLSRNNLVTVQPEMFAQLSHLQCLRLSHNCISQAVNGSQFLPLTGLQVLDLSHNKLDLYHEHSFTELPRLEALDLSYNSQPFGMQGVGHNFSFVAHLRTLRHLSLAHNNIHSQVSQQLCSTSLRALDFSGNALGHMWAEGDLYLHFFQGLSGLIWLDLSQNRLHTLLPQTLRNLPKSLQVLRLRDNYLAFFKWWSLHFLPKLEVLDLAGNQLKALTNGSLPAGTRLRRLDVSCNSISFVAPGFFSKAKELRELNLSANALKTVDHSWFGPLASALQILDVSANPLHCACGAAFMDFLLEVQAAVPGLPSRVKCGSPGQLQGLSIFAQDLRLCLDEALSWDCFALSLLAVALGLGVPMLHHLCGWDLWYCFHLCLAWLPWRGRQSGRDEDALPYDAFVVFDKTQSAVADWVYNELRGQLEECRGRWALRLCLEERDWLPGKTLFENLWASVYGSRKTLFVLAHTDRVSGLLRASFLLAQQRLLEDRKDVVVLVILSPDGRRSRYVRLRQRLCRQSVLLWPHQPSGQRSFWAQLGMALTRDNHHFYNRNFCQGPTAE
Briefly: TLR9 inhibition reporter assay (HEK-Blue SEAP, ODN2006 stimulation). The format is cell-based. As to conditions: HEK-Blue cells overexpressing human TLR9, ODN2006 5 nM. On the procedure:
(§1) TLR7/8/9 Inhibition Reporter Assays
(§2) HEK-Blue™-cells (Invivogen) overexpressing human TLR7, TLR8 or TLR9 receptors were used for screening inhibitors of these receptors using an inducible SEAP (secreted embryonic alkaline phosphatase) reporter gene under the control of the IFN-β minimal promoter fused to five NF-κB and AP-1-binding sites. Briefly, cells are seeded into Greiner 384 well plates (15000 cells per well for TLR7, 20,000 for TLR8 and 25,000 for TLR9) and then treated with test compounds in DMSO to yield a final dose response concentration range of 0.05 nM-50 μM. After a 30 minute compound pre-treatment at room temperature, the cells are then stimulated with a TLR7 ligand (gardiquimod at a final concentration of 7.5 μM), TLR8 ligand (R848 at a final concentration of 15.9 μM) or TLR9 ligand (ODN2006 at a final concentration of 5 nM) to activate NF-κB and AP-1 which induce the production of SEAP. After a 22 hour incubation at 37° C., 5% CO2, SEAP levels are determined with the addition of HEK-Blue™ Detection reagent (Invivogen), a cell culture medium that allows for detection of SEAP, according to manufacturer's specifications. The percent inhibition is determined as the % reduction in the HEK-Blue signal present in wells treated with agonist plus DMSO alone compared to wells treated with a known inhibitor.
The term pIC50 denotes −log10 of the IC50, conventionally taken in molar units. Read a low pIC50 as a high IC50. Turning to `Cc1cc(-c2[nH]c3sc(N4CCN(CC(C)(C)O)C[C@H]4C)nc3c2C(C)C)cn2ncnc12` [Example 359, (R)-1-(4-(6-isopropyl-5-(8-methyl-[1,2,4]triazolo[1,5-a]pyridin-6-yl)-4H-pyrrolo[3,2-d]thiazol-2-yl)-3-methylpiperazin-1-yl)-2-methylpropan-2-ol], the negative logarithm of the IC50 (pIC50) was under 4.30.

In turn, `Cc1cc(-c2[nH]c3sc(C(=O)N4CCCOCC4)nc3c2C(C)C)cn2ncnc12` [Example 394, (6-isopropyl-5-(8-methyl-[1,2,4]triazolo[1,5-a]pyridin-6-yl)-4H-pyrrolo[3,2-d]thiazol-2-yl)(1,4-oxazepan-4-yl)methanone] showed a pIC50 of under 4.30.

`COC1CN(C(=O)c2nc3c(C(C)C)c(-c4cc(C)c5ncnn5c4)[nH]c3s2)C1` [Example 396, (6-isopropyl-5-(8-methyl-[1,2,4]triazolo[1,5-a]pyridin-6-yl)-4H-pyrrolo[3,2-d]thiazol-2-yl)(3-methoxyazetidin-1-yl)methanone] had a negative-log IC50 (pIC50) of under 4.30.

On to `Cc1cc(-c2[nH]c3sc(C(=O)NC4COC4)nc3c2C(C)C)cn2ncnc12` [Example 397, 6-isopropyl-5-(8-methyl-[1,2,4]triazolo[1,5-a]pyridin-6-yl)-N-(oxetan-3-yl)-4H-pyrrolo[3,2-d]thiazole-2-carboxamide], for which the negative-log IC50 (pIC50) is under 4.30.

On to `Cc1cc(-c2[nH]c3sc(C(=O)N4CCOCC4)nc3c2C(C)C)cn2ncnc12` [Example 398, (6-isopropyl-5-(8-methyl-[1,2,4]triazolo[1,5-a]pyridin-6-yl)-4H-pyrrolo[3,2-d]thiazol-2-yl)(morpholino)methanone], for which the pIC50 was under 4.30.

Regarding `Cc1cc(-c2[nH]c3sc(C(=O)NCC4(S(C)(=O)=O)CC4)nc3c2C(C)C)cn2ncnc12` [Example 399, 6-isopropyl-5-(8-methyl-[1,2,4]triazolo[1,5-a]pyridin-6-yl)-N-((1-(methylsulfonyl)cyclopropyl)methyl)-4H-pyrrolo[3,2-d]thiazole-2-carboxamide], the negative-log IC50 (pIC50) is under 4.30.

As for `Cc1c(-c2[nH]c3sc(CNCC(N)=O)nc3c2C(C)C)cn2ncnc2c1C` [Example 402, 2-(((5-(7,8-dimethyl-[1,2,4]triazolo[1,5-a]pyridin-6-yl)-6-isopropyl-4H-pyrrolo[3,2-d]thiazol-2-yl)methyl)amino)acetamide], the pIC50 is under 4.30.

In the case of `Cc1c(-c2[nH]c3sc(CN4CC5(C4)CS(=O)(=O)C5)nc3c2C(C)C)cn2ncnc2c1C` [Example 403, 6-((5-(7,8-dimethyl-[1,2,4]triazolo[1,5-a]pyridin-6-yl)-6-isopropyl-4H-pyrrolo[3,2-d]thiazol-2-yl)methyl)-2-thia-6-azaspiro[3.3]heptane 2,2-dioxide], the pIC50 was under 4.30.

In turn, `Cc1c(-c2[nH]c3sc(CN4CC5(CCOCC5)C4)nc3c2C(C)C)cn2ncnc2c1C` [Example 404, 2-((5-(7,8-dimethyl-[1,2,4]triazolo[1,5-a]pyridin-6-yl)-6-isopropyl-4H-pyrrolo[3,2-d]thiazol-2-yl)methyl)-7-oxa-2-azaspiro[3.5]nonane] showed a negative-log IC50 (pIC50) of under 4.30.

`Cc1c(-c2[nH]c3sc(CN4CCNC(=O)C4)nc3c2C(C)C)cn2ncnc2c1C` [Example 406, 4-((5-(7,8-dimethyl-[1,2,4]triazolo[1,5-a]pyridin-6-yl)-6-isopropyl-4H-pyrrolo[3,2-d]thiazol-2-yl)methyl) piperazin-2-one] gave a pIC50 of under 4.30.

Turning to `Cc1c(-c2[nH]c3sc(CN4CCOCC4)nc3c2C(C)C)cn2ncnc2c1C` [Example 407, 4-((5-(7,8-dimethyl-[1,2,4]triazolo[1,5-a]pyridin-6-yl)-6-isopropyl-4H-pyrrolo[3,2-d]thiazol-2-yl)methyl)morpholine], the negative logarithm of the IC50 (pIC50) was under 4.30.

In turn, `Cc1c(-c2[nH]c3sc(CN4CC5(COC5)C4)nc3c2C(C)C)cn2ncnc2c1C` [Example 408, 6-((5-(7,8-dimethyl-[1,2,4]triazolo[1,5-a]pyridin-6-yl)-6-isopropyl-4H-pyrrolo[3,2-d]thiazol-2-yl)methyl)-2-oxa-6-azaspiro[3.3]heptane] had a negative logarithm of the IC50 (pIC50) of under 4.30.

In the next experiment the target is T2, human TLR8 (Homo sapiens, UniProt Q9NR97).
T2 sequence (Q9NR97 27-1041): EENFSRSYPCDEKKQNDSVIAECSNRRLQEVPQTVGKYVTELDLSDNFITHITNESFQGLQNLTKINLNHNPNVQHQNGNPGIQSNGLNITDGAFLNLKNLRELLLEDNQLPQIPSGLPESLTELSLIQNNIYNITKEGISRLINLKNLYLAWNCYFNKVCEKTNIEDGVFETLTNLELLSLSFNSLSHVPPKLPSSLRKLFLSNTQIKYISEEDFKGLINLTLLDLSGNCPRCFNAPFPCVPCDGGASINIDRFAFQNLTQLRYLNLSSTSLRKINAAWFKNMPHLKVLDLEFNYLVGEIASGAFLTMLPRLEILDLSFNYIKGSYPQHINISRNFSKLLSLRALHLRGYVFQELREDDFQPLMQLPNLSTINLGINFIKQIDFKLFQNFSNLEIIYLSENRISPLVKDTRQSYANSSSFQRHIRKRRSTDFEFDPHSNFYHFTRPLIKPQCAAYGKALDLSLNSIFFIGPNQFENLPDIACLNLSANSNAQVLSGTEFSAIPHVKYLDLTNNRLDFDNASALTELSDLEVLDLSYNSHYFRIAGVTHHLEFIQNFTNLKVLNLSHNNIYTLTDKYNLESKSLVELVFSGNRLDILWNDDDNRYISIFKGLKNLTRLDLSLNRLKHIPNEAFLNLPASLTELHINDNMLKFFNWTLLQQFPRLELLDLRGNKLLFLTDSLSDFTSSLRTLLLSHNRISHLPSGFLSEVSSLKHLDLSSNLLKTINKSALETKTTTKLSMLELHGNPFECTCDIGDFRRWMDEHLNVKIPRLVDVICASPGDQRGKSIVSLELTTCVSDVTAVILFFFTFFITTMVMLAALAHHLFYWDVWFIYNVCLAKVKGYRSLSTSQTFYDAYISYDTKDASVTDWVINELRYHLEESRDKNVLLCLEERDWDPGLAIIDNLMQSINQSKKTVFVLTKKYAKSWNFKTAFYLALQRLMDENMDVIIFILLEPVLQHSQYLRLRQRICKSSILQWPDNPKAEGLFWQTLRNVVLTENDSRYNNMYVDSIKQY
Nature of the experiment: TLR8 inhibition reporter assay (HEK-Blue SEAP, R848 stimulation). The format is cell-based. To be noted: HEK-Blue cells overexpressing human TLR8, R848 15.9 μM. On the procedure:
as §1, §2
A general note: A reporter such as luciferase makes a cellular process visible.
In turn, `Cc1cc(-c2[nH]c3sc(N4CCNC[C@H]4C)nc3c2C(C)C)cn2ncnc12` [Example 311, (R)-6-isopropyl-5-(8-methyl-[1,2,4]triazolo[1,5-a]pyridin-6-yl)-2-(2-methylpiperazin-1-yl)-4H-pyrrolo[3,2-d]thiazole] showed a pIC50 of under 5.51.

In the case of `COCCN1CCN(c2nc3c(C(C)C)c(-c4cc(C)c5ncnn5c4)[nH]c3s2)[C@H](C)C1` [Example 357, (R)-6-isopropyl-2-(4-(2-methoxyethyl)-2-methylpiperazin-1-yl)-5-(8-methyl-[1,2,4]triazolo[1,5-a]pyridin-6-yl)-4H-pyrrolo[3,2-d]thiazole], the pIC50 was under 5.51.

`Cc1cc(-c2[nH]c3sc(N4CCN(CC(C)(C)O)C[C@H]4C)nc3c2C(C)C)cn2ncnc12` [Example 359, (R)-1-(4-(6-isopropyl-5-(8-methyl-[1,2,4]triazolo[1,5-a]pyridin-6-yl)-4H-pyrrolo[3,2-d]thiazol-2-yl)-3-methylpiperazin-1-yl)-2-methylpropan-2-ol]: the pIC50 was under 5.51.

`Cc1cc(-c2[nH]c3sc(N4CCN(CC(C)C)C[C@H]4C)nc3c2C(C)C)cn2ncnc12` [Example 361, (R)-2-(4-isobutyl-2-methylpiperazin-1-yl)-6-isopropyl-5-(8-methyl-[1,2,4]triazolo[1,5-a]pyridin-6-yl)-4H-pyrrolo[3,2-d]thiazole] gave a pIC50 of under 5.51.
